In patent publication US9765018B2, “IDO inhibitors” (BRISTOL-MYERS SQUIBB COMPANY, priority 2013, dated 2017):

These molecules were tested against IDO (Homo sapiens (Human), UniProt P14902) (assay: Kynurenine assay in IFN-γ-stimulated Hela cells). Conditions: 20 h, read-out: Hela Kyurenine (IC50).
Type: cell-based
Description: Reagents: Hela cells (ATCC, CCL-2)
IFNg (R&D, 28-IF-100)—resuspend at 10 ug/mL in PBS with 0.1% BSA 30% TCA
Ehrlich reagent (2% w/v p-dimethylaminobenzaldehyde in glacial acetic acid)
Cell Lines and Culture Conditions
Hela cancer cell lines were acquired from the American Type Culture Collection. Cells were maintained in phenol red free-RPMI1640 medium containing high glucose and L-glutamine (Invitrogen) supplemented with 10% fetal bovine serum (FBS; Invitrogen). Cell cultures were incubated at 37° C., 5% CO2, and 100% humidity.
Cell Treatment and Kynurenine Assay
Hela cells were seeded on 96-well plates (40,000 cells per well) and allowed to adhere for 5-6 hours. Cells were then treated with vehicle (DMSO) or with IDO inhibitor at a top dose of 30 μM (3-fold dilution all the way down to 1.5 nM). A final concentration of 100 ng/mL of human recombinant IFN-γ (R&D, 28-IF-100) was immediately added to the cells to stimulate IDO expression. Treated cells were then incubated for 20 hours at 37° C. At the end of the 20 h incubation, reactions were terminated by the addition of 30% TCA to each well. Plates were incubated for 30 minutes at 50° C. to hydrolyze N-formylkynurenine to kynurenine. Cells were centrifuged 10 minutes at 2400 rpm. 100 ul of supernatants were transferred to new 96 flat well plates and mixed with 100 ul Ehrlich reagent. The resulting solution was incubated 10 minutes at RT. Absorbance at 490 nm was read using Spectra Max 384 (Molecular Devices).

IDO, sequence (P14902 whole entry): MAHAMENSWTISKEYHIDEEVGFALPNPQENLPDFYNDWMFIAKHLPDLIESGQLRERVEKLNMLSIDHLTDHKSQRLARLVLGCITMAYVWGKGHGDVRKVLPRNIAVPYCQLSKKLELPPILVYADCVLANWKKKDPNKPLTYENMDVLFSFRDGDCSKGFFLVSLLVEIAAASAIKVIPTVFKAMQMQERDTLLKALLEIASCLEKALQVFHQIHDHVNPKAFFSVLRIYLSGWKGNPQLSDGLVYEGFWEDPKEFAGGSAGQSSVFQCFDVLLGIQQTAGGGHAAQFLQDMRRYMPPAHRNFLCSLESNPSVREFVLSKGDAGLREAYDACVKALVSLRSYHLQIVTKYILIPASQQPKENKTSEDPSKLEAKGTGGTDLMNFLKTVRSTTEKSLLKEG

Molecule | IC50 [nM]
4′-(2-(tert-butyl)phenoxy)-3′-(3-(4-chlorophenyl)ureido)-4-methoxy-[1,1′-biphenyl]-3-carboxylic acid [Example 106] | 470
CC(C)(C)c1ccccc1Oc1ccc(-c2ccccc2-c2nnn[nH]2)cc1NC(=O)Nc1ccccc1Cl [Example 179, 1-(4-(2-tert-butylphenoxy)-2′-(1H-tetrazol-5-yl)biphenyl-3-yl)-3-(2-chlorophenyl)urea] | 210
Cc1ccc(NC(=O)Nc2cc(-c3cc(F)cc(C(=O)O)c3)ccc2Oc2ccccc2C(C)(C)C)cc1 [Example 252, 4′-(2-tert-butylphenoxy)-5-fluoro-3′-(3-p-tolylureido) biphenyl-3-carboxylic acid] | 660
Cc1ccc(NC(=O)Nc2cc(-c3ccc(C(=O)O)c(F)c3)ccc2Oc2ccccc2C(C)(C)C)cc1 [Example 218, 4′-(2-tert-butylphenoxy)-3-fluoro-3′-(3-p-tolylureido) biphenyl-4-carboxylic acid] | 650
O=C(Nc1ccc(C(F)(F)F)cc1)Nc1cc(-c2ccc(C(=O)O)c(Cl)c2)ccc1Oc1ccccc1C(F)(F)F [Example 207, 3-chloro-4′-(2-(trifluoromethyl)phenoxy)-3′-(3-(4-(trifluoromethyl)phenyl)ureido) biphenyl-4-carboxylic acid] | 1230
Cc1ccc(NC(=O)Nc2cc(-c3ccccc3C(=O)NS(C)(=O)=O)ccc2Oc2ccccc2C(C)(C)C)cc1 [Example 6, 4′-(2-tert-Butylphenoxy)-N-(methylsulfonyl)-3′-(3-p-tolylureido)biphenyl-2-carboxamide] | 730
COc1ccc(-c2ccc(Oc3ccccc3C(C)(C)C)c(NC(=O)NC(C)(C)C)c2)cc1C(=O)O [Example 88, 4′-(2-(tert-butyl)phenoxy)-3′-(3-(tert-butyl)ureido)-4-methoxy-[1,1′-biphenyl]-3-carboxylic acid] | 130
COc1ccc(-c2ccc(Oc3ccccc3C(C)(C)C)c(NC(=O)Nc3cccc(C#N)c3)c2)cc1C(=O)O [Example 108, 4′-(2-(tert-butyl)phenoxy)-3′-(3-(3-cyanophenyl)ureido)-4-methoxy-[1,1′-biphenyl]-3-carboxylic acid] | 720
CC(C)(C)c1ccccc1Oc1ccc(-c2cc(Cl)cc(C(=O)O)c2)cc1NC(=O)Nc1ccc(C#N)cc1 [Example 240, 4′-(2-tert-butylphenoxy)-5-chloro-3′-(3-(4-cyanophenyl)ureido)biphenyl-3-carboxylic acid] | 540
CC(C)(C)c1ccccc1Oc1ccc(-c2ccc(C(=O)O)cc2)cc1NC(=O)Nc1ccc(OC(F)(F)F)cc1 [Example 265, 4′-(2-tert-butylphenoxy)-3′-(3-(4-(trifluoromethoxy)phenyl)ureido)biphenyl-4-carboxylic acid] | 3460
CC(C)(C)c1ccccc1Oc1ccc(-c2cc(Cl)cc(C(=O)O)c2)cc1NC(=O)Nc1ccc(OC(F)(F)F)cc1 [Example 262, 4′-(2-tert-butylphenoxy)-5-chloro-3′-(3-(4-(trifluoromethoxy)phenyl)ureido) biphenyl-3-carboxylic acid] | 4560
CC(C)(C)c1ccccc1Oc1ccc(-c2cc(Cl)cc(C(=O)O)c2)cc1NC(=O)Nc1ccc(C(F)(F)F)cc1 [Example 241, 4′-(2-tert-butylphenoxy)-5-chloro-3′-(3-(4-(trifluoromethyl)phenyl)ureido) biphenyl-3-carboxylic acid] | 1040
O=C(Nc1ccccc1Cl)Nc1cc(-c2ccccc2-c2nnn[nH]2)ccc1Oc1cccc2c1CCCC2 [Example 186, 1-(2-chlorophenyl)-3-(4-(5,6,7,8-tetrahydronaphthalen-1-yloxy)-2′-(1H-tetrazol-5-yl)biphenyl-3-yl)urea] | 1130
COc1ccc(-c2ccc(Oc3ccccc3C(C)(C)C)c(NC(=O)Nc3cc(C)ccc3C)c2)cc1C(=O)O [Example 95, 4′-(2-(tert-butyl)phenoxy)-3′-(3-(2,5-dimethylphenyl)ureido)-4-methoxy-[1,1′-biphenyl]-3-carboxylic acid] | 260
CCc1ccccc1Oc1ccc(-c2ccc(OC)c(C(=O)O)c2)cc1NC(=O)Nc1ccc(C)cc1 [Example 47, 4′-(2-ethylphenoxy)-4-methoxy-3′-(3-p-tolylureido)biphenyl-3-carboxylic acid] | 540
COc1ccc(-c2ccc(Oc3c(C)cccc3C(C)(C)C)c(NC(=O)Nc3ccc(C)cc3)c2)cc1C(=O)O [Example 61, 4′-(2-tert-butyl-6-methylphenoxy)-4-methoxy-3′-(3-p-tolylureido)biphenyl-3-carboxylic acid] | 310

Molecule | IC50 [nM]
COc1ccc(-c2ccc(Oc3ccccc3C(C)(C)C)c(NC(=O)Nc3cccc(F)c3)c2)cc1C(=O)O [Example 84, 4′-(2-(tert-butyl)phenoxy)-3′-(3-(3-fluorophenyl)ureido)-4-methoxy-[1,1′-biphenyl]-3-carboxylic acid] | 160
O=C(Nc1cc(-c2cc(Cl)cc(C(=O)O)c2)ccc1Oc1ccccc1)Nc1ccccc1C(F)(F)F [Example 250, 5-chloro-4′-phenoxy-3′-(3-(2-(trifluoromethyl)phenyl)ureido) biphenyl-3-carboxylic acid] | 1060
COc1ccc(-c2ccc(Oc3ccccc3C(C)(C)C)c(NC(=O)Nc3ccc(C(C)(C)C)cc3)c2)cc1C(=O)O [Example 99, 4′-(2-(tert-butyl)phenoxy)-3′-(3-(4-(tert-butyl)phenyl)ureido)-4-methoxy-[1,1′-biphenyl]-3-carboxylic acid] | 220
CC(C)(C)c1ccccc1Oc1ccc(-c2ccc(C(=O)O)cc2)cc1NC(=O)Nc1ccc(C(F)(F)F)cc1 [Example 209, 4′-(2-tert-butylphenoxy)-3′-(3-(4-(trifluoromethyl)phenyl)ureido) biphenyl-4-carboxylic acid] | 1740
Cc1ccccc1NC(=O)Nc1cc(-c2ccc(C(=O)O)c(Cl)c2)ccc1Oc1ccccc1C(C)(C)C [Example 216, 4′-(2-tert-butylphenoxy)-3-chloro-3′-(3-o-tolylureido) biphenyl-4-carboxylic acid] | 1090
COc1ccc(-c2ccc(Oc3ccccc3C)c(NC(=O)Nc3ccccc3Cl)c2)cc1C(=O)O [Example 71, 3′-(3-(2-chlorophenyl)ureido)-4-methoxy-4′-(o-tolyloxy)biphenyl-3-carboxylic acid] | 180
CC(C)(C)c1ccccc1Oc1ccc(-c2ccccc2-c2nnn[nH]2)cc1NC(=O)Nc1ccccc1C(F)(F)F [Example 183, 1-(4-(2-tert-butylphenoxy)-2′-(1H-tetrazol-5-yl)biphenyl-3-yl)-3-(2-(trifluoromethyl)phenyl)urea] | 690
COc1ccc(Cl)cc1NC(=O)Nc1cc(-c2ccc(OC)c(C(=O)O)c2)ccc1Oc1ccccc1C(C)(C)C [Example 109, 4′-(2-(tert-butyl)phenoxy)-3′-(3-(5-chloro-2-methoxyphenyl)ureido)-4-methoxy-[1,1′-biphenyl]-3-carboxylic acid] | 600
COc1ccc(-c2ccc(O[C@@H]3CCCC[C@H]3C)c(NC(=O)Nc3ccccc3C)c2)cc1C(=O)O (relative stereo) [Example 137, 4-methoxy-4′-((trans)-2-methylcyclohexyloxy)-3′-(3-o-tolylureido)biphenyl-3-carboxylic acid] | 2430
Cc1ccc(NC(=O)Nc2cc(-c3ccccc3-c3nnn[nH]3)ccc2Oc2ccccc2C(C)(C)C)cc1 [Example 4, 1-(4-(2-tert-Butylphenoxy)-2′-(1H-tetrazol-5-yl)biphenyl-3-yl)-3-p-tolylurea] | 30
COc1ccc(-c2ccc(Oc3ccccc3C(C)(C)C)c(NC(=O)NC3CCCCC3)c2)cc1C(=O)O [Example 91, 4′-(2-(tert-butyl)phenoxy)-3′-(3-(cyclohexyl)ureido)-4-methoxy-[1,1′-biphenyl]-3-carboxylic acid] | 250
COc1ccc(-c2ccc(Oc3ccccc3C(C)(C)C)c(NC(=O)Nc3ccc(C)cc3F)c2)cc1C(=O)O [Example 100, 4′-(2-(tert-butyl)phenoxy)-3′-(3-(2-fluoro-4-methylphenyl)ureido)-4-methoxy-[1,1′-biphenyl]-3-carboxylic acid] | 470
Cc1ccc(NC(=O)Nc2cc(-c3ccc(C(=O)O)cc3)cnc2Oc2ccccc2)cc1 [Example 338] | 87900
CC(C)(C)c1ccccc1Oc1ccc(-c2cc(C(=O)O)ccc2F)cc1NC(=O)Nc1ccc(OC(F)(F)F)cc1 [Example 261, 4′-(2-tert-butylphenoxy)-6-fluoro-3′-(3-(4-(trifluoromethoxy)phenyl)ureido) biphenyl-3-carboxylic acid] | 420
COc1ccc(-c2ccc(Oc3ccccc3C(C)(C)C)c(NC(=O)Nc3ccc(C)cc3)c2)cc1C(=O)O [Example 255, 4′-(2-tert-butylphenoxy)-4-methoxy-3′-(3-p-tolylureido) biphenyl-3-carboxylic acid] | 370
COc1cc(-c2ccc(Oc3ccccc3C(C)(C)C)c(NC(=O)Nc3ccc(C)cc3)c2)ccc1C(=O)O [Example 258, 4′-(2-tert-butylphenoxy)-3-methoxy-3′-(3-p-tolylureido) biphenyl-4-carboxylic acid] | 2250
